Assay results published in patent US20190112580A1, “METHODS FOR TREATING CO[…] AND RELATED CULTURED CELLS” (priority 2017, published 2019).

Assays:
Aurora C kinase = Aurora C kinase (Homo sapiens, UniProt Q9UQB9); conditions: cited from earlier work
[1] = tested on: satellite cell-derived myoblasts
Procedure: Myoblasts were grown in the high-serum medium until reaching a 60-70% confluence by visual inspection in 12-well plate culture dishes.
In a first set of wells, the myoblast cell preparations were placed in a high-serum medium until about 70% confluence was reached. […] These myoblast cell preparations were then switched to a low-serum medium (as described in Example 1) for four days to promote fusion and myotube formation.
In a second set of wells, the myoblast cell preparations were placed in a high-serum medium until about 70% confluence was reached. Then, the myoblast cell preparations were exposed to 5 μM of 5-azacytidine in the high-serum medium for 6 hours. These myoblast cell preparations were finally switched to a low-serum medium (as described in Example 1) for 4 days to promote fusion and myotube formation.
In a third set of wells, the myoblast cell preparations were placed in a high-serum medium until about 70% confluence was reached. These myoblast cell preparations were then exposed to 5 μM of 5-azacytidine in the high-serum medium for 24 hours. These myoblast cell preparations were finally switched to a low-serum medium (as described in Example 1) for 4 days to promote fusion and myotube formation.
In a fourth set of wells, the myoblast cell preparations were placed in a high-serum medium until about 70% confluence was reached.
In a fifth set of wells, the myoblast cell preparations were placed in a high-serum medium until about 70% confluence was reached. […] These same myoblast cell preparations were finally switched to a low-serum medium for 4 days to promote fusion and myotube formation.
FIG. 5, from left to right, depicts 5 columns with 5 different assays on myotube preparations differentiated from the myoblast cell preparations in the 12-well dishes. […] The second column reflects myotubes differentiated from a myoblast cell preparation from the second set of wells, which was exposed to 5 μM of 5-AZA in high serum medium for 6 hours. The third column reflects myotubes differentiated from a myoblast cell preparation from the third set of wells, which was exposed to 5 μM of 5-AZA in high serum medium for 24 hours. […] The immunostainings on the top row of FIG. 5 identifies lipid membranes (green color, WGA), nuclei (blue color, DAPI) and myotubes (red color, ACTA2). The gray-scale panels (middle row) show staining for nuclei only (DAPI). The gray-scale panels in the bottom row show staining for muscle fibers only (ACTA2).
Briefly, satellite cells were isolated from muscle biopsies obtained from TD children during surgical procedures, sorted using FACS, plated in gelatin coated dishes, and grown into proliferation medium in 12-well plates.

porcine satellite cells = conditions: 10 μM for 48 hours (Fan et al.); cited from earlier work
C2C12 myoblasts = conditions: mouse-derived C2C12 muscle cell lines; cited from earlier work

Sequence of Aurora C kinase (Q9UQB9 whole entry): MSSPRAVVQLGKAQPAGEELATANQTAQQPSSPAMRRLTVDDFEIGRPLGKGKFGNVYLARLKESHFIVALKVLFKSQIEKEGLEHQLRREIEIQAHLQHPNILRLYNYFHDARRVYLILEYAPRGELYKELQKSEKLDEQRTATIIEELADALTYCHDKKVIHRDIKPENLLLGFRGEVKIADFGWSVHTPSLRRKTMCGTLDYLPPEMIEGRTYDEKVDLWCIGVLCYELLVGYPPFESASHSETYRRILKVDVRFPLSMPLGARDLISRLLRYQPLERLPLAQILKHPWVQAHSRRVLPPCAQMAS

SMILES	IC50 (Aurora C kinase) [µM]	myoblast fusion and myotube formation ([1]; CP and TD myoblasts, FIG. 5 and FIG. 6, 5 μM)	cell death and polyploidy (nuclei) ([1]; CP myoblasts, FIG. 5, 5 μM)	morphological changes to the membranes of the cells (WGA staining) ([1]; CP myoblasts, FIG. 5, 5 μM, 3 days)	morphological changes to ACTA2-negative cells and nuclei ([1]; TD myoblasts, FIG. 6, 5 μM)	cell death over time ([1]; myoblasts)	de-differentiation of myoblasts ([1]; myoblasts)	cell viability (porcine satellite cells)	myogenic response (porcine satellite cells)	muscle-specific gene expression, myogenesis and myotube formation (C2C12 myoblasts)
c1nc2nc(Nc3ccc(N4CCOCC4)cc3)nc(NC3CCCCC3)c2[nH]1 [Reversine, 2-(4-morpholinoanilino)-6-cyclohexylaminopurine]	0.02	shown to promote myoblast fusion and myotube formation	lower in number and suffer from polyploidy	causes morphological changes to the membranes of the cells	led to significant morphological changes to ACTA2-negative cells and nuclei in general	over time also leads to cell death	causes myoblasts to de-differentiate			
Nc1ncn([C@H]2C[C@H](O)[C@@H](CO)O2)c(=O)n1 [decitabine, 5-aza-2′-deoxycytidine]								no change in cell viability	positive myogenic response	promoted expression of muscle-specific genes, enhanced myogenesis and myotube formation
